Reference: patent US20200148682A1, “AKT ISOZYME-SPECIFIC COVALENT INHIBITORS DERIVED FROM REDOX-SIGNALING LIPIDS” (Cornell University, priority 2017, published 2020)

How the values were obtained:
MDA-MB-468 cells = test: Drug effect persistence assay; type: cell-based; details: for proliferation after drug withdrawal vs continuous treatment: 48 hours drug, then 24 hours without
Method: (§1) After this time, cells were lysed and analyzed by antibodies for phosphorylated T305 (pT305) of Akt3, Halo (Akt), and Actin (loading control). […] FIG. 23F is a graph showing proliferation curves. […] After this time, the number of viable cells was calculated using AlamarBlue®. Proliferation curves were fitted to the PI50 equation (EQN. 4). […] FIG. 23H is a graph showing the percentage of viable cells. […] The percentage of growth relative to DMSO-treated cells is shown for the 48 hour point and the 72 hour point. FIG. 23I is a schematic showing the different methods used to derive the data in 23H.
MDA-MB-468 cells were plated in a 96-well plate at a density of 3,000-5,000 cells per well for 10 hours before the addition of varying concentrations of inhibitors. The cells were allowed to grow for 48 hours. The cell medium was aspirated and the cells were washed once with DMEM medium. The cells continued to grow in 5% FBS DMEM medium for 24 hours before adding 1/10th volume of AlamarBlue® reagent to cells in culture medium. The fluorescence emission signals at 590 nm were read using a Cytation 3 cell imaging multi-mode reader (BioTeK) using an excitation wavelength of 560 nm. Curve fitting and data analyses were performed using Prism software (FIG. 23I).

[1] = tested on: six other cultured cell lines (breast cancer lines not PTEN-null TNBC, fibroblast lines); test: Cell viability assay (AlamarBlue), six other cultured cell lines; type: cell-based; details: for toxicity and selectivity across cell lines: 3 days
Method: as §1
Indicated cells were plated in a 96-well plate containing the DMEM complete medium (see Example 11 for complete medium formulation, 100 μL per well) with a density of 3,000-5,000 cells per well for 12 hours followed by the addition of varying concentrations of inhibitors in rinse medium (100 μL). The cells were allowed to grow for 72 hours and 100 μL of the culture medium was removed from each well. This was followed by the addition of 10 μL AlamarBlue® reagent to each well. The fluorescence emission signals at 590 nm were read by Cytation 3 cell imaging multi-mode reader (BioTeK) using an excitation wavelength of 560 nm. Curve fitting and data analysis were performed using Prism software.

recombinant Akt3 = target: T1, recombinant Akt3 (Homo sapiens, UniProt Q9Y243); test: NADH-coupled Akt activity assay (progress curve analysis); type: biochemical
T1 construct: purchased Active Motif 31147
Source text: FIGS. 20A-20H show the kinetic analysis of Akt3 covalent inhibition by MK-HNE, MK-FNE, and MK-dHNE. FIG. 20A is a schematic representation of the NADH-coupled kinetic assay to monitor the progress of Akt-catalyzed phosphorylation of the known peptide substrate, Crosstide (Akt substrate, cat. No. sc-471145, Santa Cruz). […] The solid curves are the best nonlinear fits of the data using EQN. 1. FIG. 20D is a graph showing a replot of kobs for the progress curve as a function of MK-HNE concentration. FIG. 20F is a graph showing a replot of kobs for the progress curve as a function of MK-dHNE concentration. The hyperbolic curve is the best nonlinear fit to EQN. 2. FIG. 20H is a graph showing kobs for the progress curve as a function of MK-FNE concentration fit to a cooperative binding equation using EQN 3. Inhibition of recombinant Akt3 ([…]) by MK-HNE, MK-dHNE, and MK-FNE was assayed by progress curve analysis: inhibitor was added to enzyme in assay buffer containing 100 nM Akt3 kinase, 100 μM Crosstide (Akt substrate, cat. No. sc-471145, Santa Cruz), 500 μM ATP, 4 mM TCEP, 5 mM phosphoenolpyruvate, pyruvate kinase (24-40 units/mL), lactate dehydrogenase (36-56 units/mL), 500 μM NADH and various concentrations of the inhibitor. All curves were background rate subtracted. Product formation was measured continuously for 6 min. Over this time, Akt3 activity was constant in the absence of the inhibitors.
To a 96-well plate with varying amounts of indicated inhibitors was added the kinetic assay mixture containing, in final concentrations, 50 mM HEPES, 100 mM NaCl, 10 mM MgCl2, 5 mM phosphoenolpyruvate, 500 μM NADH, 100 μM crosstide (the Akt substrate, cat. No. sc-471145, Santa Cruz), pyruvate kinase (24-40 units/mL), lactate dehydrogenase (36-56 units/mL), 4 mM TCEP, 500 μM ATP. […] The progress of phosphorylation was monitored by reading absorbance at 340 nm over the course of study. […]
To gain a more quantitative understanding of the covalent inhibitors, inhibition of Akt3 by MK-HNE in vitro was investigated. […] Loss of NADH was measured by decrease in A340 as a function of time. […]

T1 sequence (Q9Y243 whole entry): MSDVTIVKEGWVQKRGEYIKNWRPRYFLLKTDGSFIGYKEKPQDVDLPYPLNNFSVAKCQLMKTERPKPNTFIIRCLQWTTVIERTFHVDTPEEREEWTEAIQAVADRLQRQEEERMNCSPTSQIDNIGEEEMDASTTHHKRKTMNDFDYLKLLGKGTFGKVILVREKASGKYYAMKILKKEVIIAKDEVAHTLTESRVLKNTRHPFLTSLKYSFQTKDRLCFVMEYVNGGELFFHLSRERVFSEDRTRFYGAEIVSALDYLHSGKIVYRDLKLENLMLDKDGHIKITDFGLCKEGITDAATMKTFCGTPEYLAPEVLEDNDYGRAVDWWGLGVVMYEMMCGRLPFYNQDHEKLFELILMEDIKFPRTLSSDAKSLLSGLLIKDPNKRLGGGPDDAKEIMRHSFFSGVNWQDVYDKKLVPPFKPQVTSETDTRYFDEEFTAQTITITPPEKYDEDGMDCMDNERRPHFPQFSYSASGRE

Structure (SMILES)	proliferation after drug withdrawal vs continuous treatment (MDA-MB-468 cells)	EC60 concentration (MDA-MB-468 cells; MDA-MB-468, concentration used for 48 hours treatment)	toxicity and selectivity across cell lines [1]	n (Hill coefficient) (recombinant Akt3; cooperative binding fit of kobs vs concentration)	kinact/KI (recombinant Akt3; recombinant Akt3, as stated in text)	PI50(MK-FNE)/PI50(MK-2206) ([1]; all but PTEN-null TNBC lines, except TSE)	PI50(MK-FNE)/PI50(MK-2206) ([1]; some lines)	inhibition profile of Akt3 (recombinant Akt3; progress curves)
NC1(c2ccc(-c3nc4ccn5c(=O)[nH]nc5c4cc3-c3ccccc3)cc2)CCC1 [MK-2206]	significant regain of proliferation	2000 nM	generally toxic to most lines					
C#CCCCC(F)/C=C/C(=O)NC1(c2ccc(-c3nc4ccn5c(=O)[nH]nc5c4cc3-c3ccccc3)cc2)CCC1.Cl (stereo not shown) [MK-FNE, (E)-8-(4-(1-(4-Fluoronon-2-en-8-ynamido)cyclobutyl)phenyl)-3-oxo-9-phenyl-2,3-dihydro-[1,2,4]triazolo[3,4-f][1,6]naphthyridin-7-ium Chloride]	no difference between withdrawal (wd) and continuous (cont) treatment		significantly selective against PTEN-null TNBC lines	3.2	~10000 M⁻¹ s⁻¹	greater than 2	above 8	
C#CCCCC(O)/C=C/C(=O)NC1(c2ccc(-c3nc4ccn5c(=O)[nH]nc5c4cc3-c3ccccc3)cc2)CCC1.Cl (stereo not shown) [MK-HNE, (E)-8-(4-(1-(4-Hydroxynon-2-en-8-ynamido)cyclobutyl)phenyl)-3-oxo-9-phenyl-2,3-dihydro-[1,2,4]triazolo[3,4-f][1,6]naphthyridin-7-ium Chloride]								time-dependent inhibitor
